# According to patent US20090131391A1, “INHIBITOR FOR DIFFERENTIATION OF HEMATOPOIETIC PRECURSOR CELLS” (OOO "MBF", priority 2006, published 2009):
# Key:
# CD34+ cells = assay: Flow cytometry of CD34+ cells in bone marrow and peripheral blood; assay type: in vivo, mouse
# Protocol: The effects of the proposed agent (9-phenyl-symmetric-octahydroselenoxanthene) on mouse hematopoiesis were assayed by flow cytometry. Relative number of CD34+ cells and the density of the antigen were assayed in peripheral blood cells (80,000 cells per sample) and bone marrow cells (40,000 cells per sample). As reported earlier, administration of the proposed agent has no effect on relative number of less differentiated stem cells (CD34+).
# [1] = system: polychromatophil mouse erythrocytes (line C57 B1); assay: Micronuclei in peripheral polychromatophil erythrocytes after electromagnetic irradiation; assay type: in vivo
# Protocol: Protective properties of 9-phenyl-symmetric-octahydroselenoxanthene against non-ionizing radiation were examined by studying formation of micronuclei in polychromatophil mouse erythrocytes (line C57 B1). Micronuclei of the interphase nucleus are acentric chromosome fragments. Animals were exposed to electromagnetic radiation in millimeter wavelength range, frequency 39.5 GHz, and wavelength 7.5 mm for 1 hour. Flux density was approximately 3 microW/cm^2, which is 300 fold less than levels posing danger of overheating due to field energy absorption to a biological object.
# 5 mg/kg of 9-phenyl-symmetric-octahydroselenoxanthene was administered to group 1 (n=5) orally in 0.2 ml of oil 7 days prior to irradiation. Group 2 (n=5) received 0.2 ml of oil only and untreated mice were used as controls. Mice were sacrificed 1 day after irradiation and number of micronuclei was assayed in peripheral polychromatophil erythrocytes (150,000 cells per sample).
# [2] = system: colony-forming cells in the spleen, CFC-S; assay: Exogenous spleen colony assay (CFC-S) after agent and gamma-irradiation of donor mice; assay type: in vivo
# Protocol: Assay of effect of various doses of ionizing radiation on hematopoiesis. 950 female mice of two lines—(CBA×C 57 B 1/6) F1 and (DBA×C 57B1/6) F1—were used in this study. Radiation was administered using a radiation therapy machine “Luch-1” utilizing gamma-rays ^60Co at 0.9 Gy/min. 9-phenyl-symmetric-octahydroselenoxanthene was administered orally in doses 1.0, 5.0, 10 and 20 mg/kg in 0.2 ml of oil. Agent was administered 1, 3 or 7 days prior to radiation treatment of 1.5 Gy; bone marrow was then extracted from donor mice, and cell suspension was injected into lethally irradiated (8 Gy) recipient mice of the same line. Colony-forming activity was assayed by number of exogenous spleen colonies when mice were sacrificed on day 9.
# 300 female mice of line (CBA×C57B1/6) F1 were used in the experiment. Radiation was administered using a radiation therapy machine “Luch-1” utilizing gamma-rays ^60Co at 0.9 Gy/min. 9-phenyl-symmetric-octahydroselenoxanthene was administered orally in doses 1.0, 5.0, 10 and 20 mg/kg in 0.2 ml of oil 7 days prior to radiation treatment at following doses: 1.5, 2.0, 3.0 and 5.0 Gy. Bone marrow was extracted 10-15 minutes after the treatment and the cell suspension was injected into lethally irradiated (8 Gy) recipient mice. Colony-forming activity was assayed by number of exogenous spleen colonies when mice were sacrificed on day 9.
# [3] = system: Lewis lung carcinoma (LLC); assay: Lewis lung carcinoma growth index and lung metastases with localized irradiation; assay type: in vivo, mice; conditions: for Average number of lung metastases: day 21, surviving animals
# Protocol: The number of lung metastases was assayed on day 21 in surviving animals.
# As in the previous series, tumor cells were injected subcutaneously into right hind leg at 2.0×10^6 cells/mouse (total of 40 mice).
# [4] = system: LLC (Lewis lung carcinoma); assay: Lewis lung carcinoma growth and metastasis with Platidiam (cisplatin) treatment; assay type: in vivo, C57B1/6 mice
# [5] = Agent administered 1 day prior to analysis, no irradiation
# [6] = Agent administered 7 days prior to analysis + irradiation, 1.5 Gy
# [7] = Agent administered 7 days prior to analysis, no irradiation
# [8] = Inhibitor + localized irradiation
# [9] = concurrent use with localized irradiation
molecule,measurement,setting,value
9-phenyl-symmetric-octahydroselenoxanthene,"Total CD34+ cells in bone marrow, 10^7, Mean","CD34+ cells; Agent administered 1 day prior to analysis + irradiation, 1.5 Gy",2.1 10^7
same,"Total CD34+ cells in bone marrow, 10^7, Mean",CD34+ cells; [5],4.0 10^7
same,"Total CD34+ cells per 1 ml of peripheral blood, 10^3, Mean",CD34+ cells; [5],6.8 10^3
same,"Total CD34+ cells in bone marrow, 10^7, Mean",CD34+ cells; [6],1.0 10^7
same,"Total CD34+ cells per 1 ml of peripheral blood, 10^3, Mean",CD34+ cells; [6],3.8 10^3
same,"Total CD34+ cells in bone marrow, 10^7, Mean",CD34+ cells; [7],4.0 10^7
same,"Total CD34+ cells per 1 ml of peripheral blood, 10^3, Mean",CD34+ cells; [7],8.0 10^3
same,number of more differentiated progenitors,"CD34+ cells; blood cells, after 7 days",decreases
same,portion of CD34+ cells on the blood,"CD34+ cells; blood cells, three experiments",does not change
same,density of CD34 antigen on the cell surface,"CD34+ cells; by day 7 after the agent administration, p<0.05",increases
same,effect on relative number of less differentiated stem cells (CD34+),CD34+ cells; flow cytometry,no effect
same,effect on differentiation of progenitor cells,CD34+ cells; peripheral blood and bone marrow composition after irradiation,blocks differentiation of progenitor cells of the granulocyte/macrophage lineage
same,Frequency of micronuclei-containing polychromatophil erythrocytes × 10^3,"[1]; 5 mg/kg orally 7 days prior to electromagnetic irradiation 39.5 GHz, 1 hour, assayed 1 day after irradiation",6.0 ± 2.10 × 10^3
same,protection against non-ionizing radiation,[1]; electromagnetic irradiation,confers protection
same,cell survival compared with the untreated control,"[2]; 5.0 mg/kg 7 days prior, 1.5 Gy",not significantly different
same,Cell survival relative to the irradiated control,"[2]; 5.0 mg/kg 7 days prior, all radiation doses excluding 1.5 Gy (2.0, 3.0, 5.0 Gy)",2 fold
same,effect on CFC-S number in donor mice,[2]; 5.0 mg/kg of the agent alone at various time points prior to bone marrow extraction,no effect
same,"Number of colonies formed per 10^5 of bone marrow cells, M ± m","[2]; 5 mg/kg orally, 1 day prior to irradiation 1.5 Gy",6.4 ± 0.5 per 10^5 of bone marrow cells
same,"Number of colonies formed per 10^5 of bone marrow cells, M ± m","[2]; 5 mg/kg orally, 1 day prior, no irradiation",12.5 ± 0.6 per 10^5 of bone marrow cells
same,"Number of colonies formed per 10^5 of bone marrow cells, M ± m","[2]; 5 mg/kg orally, 3 days prior to irradiation 1.5 Gy",9.1 ± 0.5 per 10^5 of bone marrow cells
same,"Number of colonies formed per 10^5 of bone marrow cells, M ± m","[2]; 5 mg/kg orally, 3 days prior, no irradiation",10.7 ± 0.4 per 10^5 of bone marrow cells
same,"Number of colonies formed per 10^5 of bone marrow cells, M ± m","[2]; 5 mg/kg orally, 7 days prior to irradiation 1.5 Gy (Table 1)",12.7 ± 0.7 per 10^5 of bone marrow cells
same,"Number of colonies formed per 10^5 of bone marrow cells, M ± m","[2]; 5 mg/kg orally, 7 days prior, no irradiation",11.1 ± 0.7 per 10^5 of bone marrow cells
same,persistence of the CFC-S adaptive response,"[2]; 5.0 mg/kg, 1.5 Gy",7 days
same,increase in CFC-S compared to the irradiated control,"[2]; 5.0 mg/kg, 1 day prior to 1.5 Gy (minimal effect)",2 fold
same,decrease of the effects of radiation,"[2]; 5.0 mg/kg, 7 days prior to 1.5 Gy (maximal effect)",3 fold
same,"Number of colonies formed per 10^5 of bone marrow cells, M ± m","[2]; 5 mg/kg, 7 days prior to radiation dose 1.5 Gy (Table 2)",9.2 ± 0.2 per 10^5 of bone marrow cells
same,"Number of colonies formed per 10^5 of bone marrow cells, M ± m","[2]; 5 mg/kg, 7 days prior to radiation dose 2.0 Gy",3.6 ± 0.3 per 10^5 of bone marrow cells
same,"Number of colonies formed per 10^5 of bone marrow cells, M ± m","[2]; 5 mg/kg, 7 days prior to radiation dose 3.0 Gy",2.1 ± 0.1 per 10^5 of bone marrow cells
same,"Number of colonies formed per 10^5 of bone marrow cells, M ± m","[2]; 5 mg/kg, 7 days prior to radiation dose 5.0 Gy",0.6 ± 0.06 per 10^5 of bone marrow cells
same,Growth index,[3]; [8],4.6 ± 0.8
same,Growth index,"[3]; Inhibitor + localized irradiation, 1 day",1
same,Growth index,"[3]; Inhibitor + localized irradiation, 4 days",1.4 ± 0.1
same,Growth index,"[3]; Inhibitor + localized irradiation, 6 days",1.7 ± 0.2
same,Growth index,"[3]; Inhibitor + localized irradiation, 8 days",1.84 ± 0.3
same,Growth index,"[3]; Inhibitor + localized irradiation, 11 days",2.65 ± 0.6
same,Average number of lung metastases,[3]; [8],13.4 ± 1.8
same,Growth index,[3]; Inhibitor alone,7.7 ± 1.7
same,Growth index,"[3]; Inhibitor alone, 1 day",1
same,Growth index,"[3]; Inhibitor alone, 4 days",1.64 ± 0.1
same,Growth index,"[3]; Inhibitor alone, 6 days",3.3 ± 0.25
same,Growth index,"[3]; Inhibitor alone, 8 days",3.9 ± 0.7
same,Growth index,"[3]; Inhibitor alone, 11 days",5.3 ± 0.7
same,Average number of lung metastases,[3]; Inhibitor alone,33.5 ± 2.5
same,growth indexes of agent alone versus agent + irradiation,[3]; combination with irradiation,not significantly different
same,effect on metastasis,[3]; [9],does not significantly increase metastasis
same,protection of tumor cells from effects of radiation,[3]; [9],does not protect the tumor cells from effects of radiation
same,effect on tumor growth,[3]; inhibitor alone vs control,does not affect tumor growth
same,influence on metastatic processes,"[3]; non-irradiated and irradiated tumor-bearing mice, day 21",does not influence metastatic processes significantly
same,effect on tumor growth and number of lung metastases,[4]; administered 30 minutes prior to chemotherapy with Platidiam (cisplatin),did not exhibit any significant effect
"N.N.[Cl][Pt][Cl] [Platidiam (cisplatin), cisplatin]",Avg number of lung metastases M ± m,[4]; C57B1/6 mice with LLC,6.2 ± 0.7
same,"Tumor mass, g M ± m",[4]; C57B1/6 mice with LLC,4.5 ± 0.5 g
same,"Tumor volume, sm^3 M ± m",[4]; C57B1/6 mice with LLC,4.6 ± 0.6 sm^3
same,anti-tumor effect (tumor mass and lung metastases),[4]; C57B1/6 mice with LLC,slight but consistent anti-tumor effect
